Assay results from ChEMBL document CHEMBL4359888, “Discovery of aryl-substituted indole and indoline derivatives as RORγt agonists” (Eur J Med Chem, 2019).
In brackets after ≈: the same amount, converted by molar mass.

target: T1, Nuclear receptor ROR-gamma (Homo sapiens, UniProt P51449); test: Agonist activity at APC-labeled biotinylated RORgammaT LBD (unknown origin) assessed as induction of biotinylated SRC-1 peptide recruitment incubated for 1 hr by dual FRET assay; conditions: not given
T1 sequence (P51449 whole entry): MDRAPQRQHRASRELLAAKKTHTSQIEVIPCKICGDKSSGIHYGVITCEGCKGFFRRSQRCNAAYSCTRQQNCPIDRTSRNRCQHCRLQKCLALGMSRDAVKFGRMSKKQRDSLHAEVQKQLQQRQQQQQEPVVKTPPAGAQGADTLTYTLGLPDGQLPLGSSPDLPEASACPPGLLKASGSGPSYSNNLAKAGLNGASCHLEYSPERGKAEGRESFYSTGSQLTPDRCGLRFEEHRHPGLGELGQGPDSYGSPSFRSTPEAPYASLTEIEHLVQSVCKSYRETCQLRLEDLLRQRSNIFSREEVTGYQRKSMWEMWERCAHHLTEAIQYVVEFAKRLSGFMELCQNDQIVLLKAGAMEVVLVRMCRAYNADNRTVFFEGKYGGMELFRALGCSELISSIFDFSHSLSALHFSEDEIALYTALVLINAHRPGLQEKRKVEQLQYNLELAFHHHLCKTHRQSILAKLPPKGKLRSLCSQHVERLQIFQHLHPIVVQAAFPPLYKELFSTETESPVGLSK

SMILES | EC50 [nM]
O=C(O)CCc1cc2ccc(-c3cc(F)cc(OC(F)F)c3)cc2n1S(=O)(=O)c1cccc(C(F)(F)F)c1 | 25.5
O=C(O)CCc1cn(S(=O)(=O)c2cccc(C(F)(F)F)c2)c2cc(-c3cc(F)cc(OC(F)F)c3)ccc12 | 43.6
O=S(=O)(c1cccc(C(F)(F)F)c1)n1ncc2ccc(-c3cc(F)cc(OC(F)F)c3)cc21 | 205
O=S(=O)(c1cccc(C(F)(F)F)c1)N1CCc2ccc(-c3cc(F)cc(OC(F)F)c3)cc21 | 50.6
O=C(O)c1cc2ccc(-c3cc(F)cc(OC(F)F)c3)cc2n1S(=O)(=O)c1cccc(C(F)(F)F)c1 | 74.3
O=C(O)Cc1cn(S(=O)(=O)c2cccc(C(F)(F)F)c2)c2cc(-c3cc(F)cc(OC(F)F)c3)ccc12 | 133
O=C(CC1Cc2ccc(-c3cc(F)cc(OC(F)F)c3)cc2N1S(=O)(=O)c1cccc(C(F)(F)F)c1)N1CC2(COC2)C1 (stereo unspecified) | 47.9
O=C(O)CCCc1cc2ccc(-c3cc(F)cc(OC(F)F)c3)cc2n1S(=O)(=O)c1cccc(C(F)(F)F)c1 | 45.3
O=C(O)CC1CN(S(=O)(=O)c2cccc(C(F)(F)F)c2)c2cc(-c3cc(F)cc(OC(F)F)c3)ccc21 (stereo unspecified) | 21.8
O=C(O)CCC1CN(S(=O)(=O)c2cccc(C(F)(F)F)c2)c2cc(-c3cc(F)cc(OC(F)F)c3)ccc21 (stereo unspecified) | 14.6
O=C(O)CCCc1cn(S(=O)(=O)c2cccc(C(F)(F)F)c2)c2cc(-c3cc(F)cc(OC(F)F)c3)ccc12 | 93.8
O=C1CCN(C(=O)CC2Cc3ccc(-c4cc(F)cc(OC(F)F)c4)cc3N2S(=O)(=O)c2cccc(C(F)(F)F)c2)C1 (stereo unspecified) | 52.3
O=C(CC1Cc2ccc(-c3cc(F)cc(OC(F)F)c3)cc2N1S(=O)(=O)c1cccc(C(F)(F)F)c1)N1CCOCC1 (stereo unspecified) | 209

Other lines, results leading:

EC50 [nM] | SMILES
31.1 | O=C(O)CC1Cc2ccc(-c3cccc(OC(F)(F)F)c3)cc2N1S(=O)(=O)c1cccc(C(F)(F)F)c1 (stereo unspecified)
42.6 | O=C(O)CC1Cc2ccc(-c3ccc4c(c3)OC(F)(F)O4)cc2N1S(=O)(=O)c1cccc(C(F)(F)F)c1 (stereo unspecified)
244 | O=C(CC1Cc2ccc(-c3cc(F)cc(OC(F)F)c3)cc2N1S(=O)(=O)c1cccc(C(F)(F)F)c1)N1CC(O)C1 (stereo unspecified)
87.4 | O=C(O)CC1Cc2ccc(-c3ccc4c(c3)OCO4)cc2N1S(=O)(=O)c1cccc(C(F)(F)F)c1 (stereo unspecified)
39.3 | COc1cc(F)cc(-c2ccc3c(c2)N(S(=O)(=O)c2cccc(C(F)(F)F)c2)C(CC(=O)O)C3)c1 (stereo unspecified)
56.8 | O=C(O)CC1Cc2ccc(-c3ccc4c(c3)CCO4)cc2N1S(=O)(=O)c1cccc(C(F)(F)F)c1 (stereo unspecified)
16.1 | O=C(O)C[C@@H]1Cc2ccc(-c3cc(F)cc(OC(F)F)c3)cc2N1S(=O)(=O)c1cccc(C(F)(F)F)c1
124 | CC(C)Oc1cc(F)cc(-c2ccc3c(c2)N(S(=O)(=O)c2cccc(C(F)(F)F)c2)C(CC(=O)O)C3)c1 (stereo unspecified)

system: not listed separately; test: Metabolic stability in mouse liver microsomes assessed as half life of compound at 1 uM and measured for 60 mins in presence of NADPH by HPLC-MS/MS analysis; assay type: ADME, Microsome; conditions: not given

half-life at 1 µM [min] | SMILES
> 145 | O=C(O)CCc1cc2ccc(-c3cc(F)cc(OC(F)F)c3)cc2n1S(=O)(=O)c1cccc(C(F)(F)F)c1
11.4 | O=S(=O)(c1cccc(C(F)(F)F)c1)N1CCc2ccc(-c3cc(F)cc(OC(F)F)c3)cc21
0.7 | O=C(CC1Cc2ccc(-c3cc(F)cc(OC(F)F)c3)cc2N1S(=O)(=O)c1cccc(C(F)(F)F)c1)N1CC2(COC2)C1 (stereo unspecified)
45.6 | O=C(O)CC1CN(S(=O)(=O)c2cccc(C(F)(F)F)c2)c2cc(-c3cc(F)cc(OC(F)F)c3)ccc21 (stereo unspecified)
24.5 | O=C(O)CCC1CN(S(=O)(=O)c2cccc(C(F)(F)F)c2)c2cc(-c3cc(F)cc(OC(F)F)c3)ccc21 (stereo unspecified)

target: T1, Nuclear receptor ROR-gamma; test: Transactivation of human GAL4-fused RORgammaT LBD expressed in human HEK293T cells incubated for 16 to 20 hrs by steady-glo luciferase assay; assay type: cell-based; conditions: not given

EC50 [nM] | SMILES
1710 | O=C(O)CCc1cc2ccc(-c3cc(F)cc(OC(F)F)c3)cc2n1S(=O)(=O)c1cccc(C(F)(F)F)c1
752 | O=C(CC1Cc2ccc(-c3cc(F)cc(OC(F)F)c3)cc2N1S(=O)(=O)c1cccc(C(F)(F)F)c1)N1CC2(COC2)C1 (stereo unspecified)
201 | O=C(O)C[C@@H]1Cc2ccc(-c3cc(F)cc(OC(F)F)c3)cc2N1S(=O)(=O)c1cccc(C(F)(F)F)c1

system: not listed separately; test: in vitro; conditions: mouse, liver microsomes

microsomal CLint at 1 h, 1 µM [µL/min/mg] | SMILES
121 | O=S(=O)(c1cccc(C(F)(F)F)c1)N1CCc2ccc(-c3cc(F)cc(OC(F)F)c3)cc21

system: not listed separately; test: physchem; conditions: phosphate buffer, pH 7.46

solubility kinetic at 2 h, 100 µM [µM] | SMILES
1.48 (≈ 0.721 µg/mL) | O=S(=O)(c1cccc(C(F)(F)F)c1)N1CCc2ccc(-c3cc(F)cc(OC(F)F)c3)cc21
